Columns and labels:
Assay type in all cases: biochemical
DYRK1A = biological target: T1, DYRK1A (Homo sapiens, UniProt Q13627); experiment: Inhibition test on activity of DYRK family, mobility shift assay (MSA), DYRK1A; settings: ATP 100 μM, FITC-labeled DYRKtide peptide substrate, room temperature 1 hour; for IC50: read-out: Inhibitory Activity 1a (IC50 against DYRK1A)
T1 construct: purchased Carna Biosciences, Inc. 04-130
Experimental: (§1) [Inhibition Test on Activity of DYRK Family (DYRK1A, DYRK1B, DYRK2, and […])]
(§2) (Method for Measuring Kinase Activity)
(§3) The kinase activity was measured by mobility shift assay (MSA) method using QuickScout Screening Assist™ MSA (commercially available kit manufactured by Carna Biosciences, Inc.). The substrate of the kinase reaction used was an FITC-labeled DYRKtide peptide included in the kit. An assay buffer [20 mM HEPES, 0.01% Triton X-100™, 2 mM dithiothreitol, pH 7.5] was used to create a substrate mixture solution with a substrate (4 μM), MgCl2 (20 mM), and ATP (DYRK1A: 100 μM; DYRK1B: 200 μM; DYRK2: 40 μM; and DYRK3: 20 μM). In addition, kinases (DYRK1A: manufactured by Carna Biosciences, Inc., Cat. No. 04-130; DYRK1B: manufactured by Carna Biosciences, Inc., Cat. No. 04-131; DYRK2; manufactured by Carna Biosciences, Inc., Cat. No. 04-132; and DYRK3; manufactured by Carna Biosciences, Inc., Cat. No. 04-133) were diluted with the assay buffer to prepare enzyme solutions (DYRK1A: 0.2 ng/μL; DYRK1B: 0.08 ng/μL; DYRK2: 0.04 ng/μL; and DYRK3: 0.25 ng/μL). The 10 mM solution of the test compound in DMSO was further diluted with DMSO to 10 levels of the concentration (0.00003 mM, 0.0001 mM, 0.0003 mM, 0.001 mM, 0.003 mM, 0.01 mM, 0.03 mM, 0.1 mM, 0.3 mM, and 1 mM), each of which was subjected to 25-fold dilution with the assay buffer to obtain a drug solution (4% DMSO solution). 5 μL of the drug solution or a control solution (4% DMSO-assay buffer), 5 μL of the substrate mixture solution, and 10 μL of the enzyme solution were mixed in the wells of a polypropylene 384-well plate and allowed to react at room temperature for 1 hour, and then the reaction was quenched by adding 60 μL of the termination buffer included in the kit. Subsequently, the quantities of the substrates (S) and the phosphorylated substrate (P) in the reaction solution were measured using LabChip EZ Reader II system (manufactured by Caliper Life Sciences) according to the protocol of the assay kit.
(§4) (Method for Evaluating Inhibitory Activity)
(§5) The heights of the peaks of the “substrate” and the “phosphorylated substrate” were expressed as S and P, respectively, and a blank containing the assay buffer instead of the enzyme solution was also measured.
(§6) The inhibition rate (%) of the test compound was calculated according to the following equation:
(§7) Inhibition rate (%)=(1−(C−A)/(B−A))×100
(§8) wherein, A, B, and C represent P/(P+S) of the blank well, P/(P+S) of the control solution well, and P/(P+S) of the compound-containing well, respectively.
(§9) The IC50 value was calculated via a regression analysis of the inhibition rate and the test compound concentration (logarithmic value).
(§10) The inhibiting activities of representative compounds of the present invention are shown against DYRK1A, DYRK1B, DYRK2, and DYRK3 in Tables 7 and 8. The kinase activity inhibitory effect was indicated with the mark *** at an IC50 value of less than 0.01 μM; the mark ** at 0.01 μM or more and less than 0.1 μM; the mark * at 0.1 μM or more and less than 1 μM; and the mark — at 1 μM or more (N.D. indicates not measured).

DYRK2 = biological target: T2, DYRK2 (Homo sapiens, UniProt Q92630); experiment: Inhibition test on activity of DYRK family, mobility shift assay (MSA), DYRK2; settings: ATP 40 μM, FITC-labeled DYRKtide peptide substrate, room temperature 1 hour; for IC50: read-out: Inhibitory Activity 2 (IC50 against DYRK2)
T2 construct: purchased Carna Biosciences, Inc. 04-132
T2 sequence (Q92630 1-601): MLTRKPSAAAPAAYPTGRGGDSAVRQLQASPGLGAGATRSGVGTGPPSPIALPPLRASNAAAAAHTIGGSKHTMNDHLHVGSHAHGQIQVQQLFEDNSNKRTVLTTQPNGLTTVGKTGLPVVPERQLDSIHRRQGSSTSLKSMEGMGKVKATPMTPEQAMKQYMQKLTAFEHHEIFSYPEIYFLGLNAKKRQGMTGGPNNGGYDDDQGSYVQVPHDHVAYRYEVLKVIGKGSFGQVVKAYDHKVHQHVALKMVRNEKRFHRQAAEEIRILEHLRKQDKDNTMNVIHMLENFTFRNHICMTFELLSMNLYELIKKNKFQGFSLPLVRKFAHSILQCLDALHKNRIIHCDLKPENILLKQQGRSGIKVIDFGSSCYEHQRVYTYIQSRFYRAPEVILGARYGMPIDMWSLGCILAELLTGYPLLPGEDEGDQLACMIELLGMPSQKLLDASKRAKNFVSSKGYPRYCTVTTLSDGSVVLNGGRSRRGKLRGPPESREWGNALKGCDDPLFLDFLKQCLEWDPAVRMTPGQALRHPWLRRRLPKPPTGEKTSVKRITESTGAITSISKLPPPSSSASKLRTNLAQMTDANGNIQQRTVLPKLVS
Experimental: as §1, §2, §3, §4, §5, §6, §7, §8, §9, §10

DYRK3 = biological target: T3, DYRK3 (Homo sapiens, UniProt O43781); experiment: Inhibition test on activity of DYRK family, mobility shift assay (MSA), DYRK3; settings: ATP 20 μM, FITC-labeled DYRKtide peptide substrate, room temperature 1 hour; for IC50: read-out: Inhibitory Activity 3 (IC50 against DYRK3)
T3 construct: purchased Carna Biosciences, Inc. 04-133
T3 sequence (O43781 1-588): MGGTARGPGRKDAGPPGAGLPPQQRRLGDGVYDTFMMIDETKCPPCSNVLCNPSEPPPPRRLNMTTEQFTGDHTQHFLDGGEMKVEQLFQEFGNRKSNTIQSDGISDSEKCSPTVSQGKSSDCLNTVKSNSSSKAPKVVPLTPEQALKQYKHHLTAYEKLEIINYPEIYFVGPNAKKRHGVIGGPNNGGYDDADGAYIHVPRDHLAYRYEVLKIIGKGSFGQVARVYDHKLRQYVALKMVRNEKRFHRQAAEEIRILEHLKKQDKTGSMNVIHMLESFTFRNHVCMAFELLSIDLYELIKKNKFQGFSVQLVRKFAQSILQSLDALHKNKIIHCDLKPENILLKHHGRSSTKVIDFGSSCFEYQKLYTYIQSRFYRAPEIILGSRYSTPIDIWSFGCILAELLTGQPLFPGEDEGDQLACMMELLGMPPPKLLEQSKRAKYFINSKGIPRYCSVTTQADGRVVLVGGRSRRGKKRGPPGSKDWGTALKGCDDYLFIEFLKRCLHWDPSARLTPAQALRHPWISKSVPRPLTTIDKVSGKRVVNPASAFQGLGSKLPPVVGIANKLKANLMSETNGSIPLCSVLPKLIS
Experimental: as §1, §2, §3, §4, §5, §6, §7, §8, §9, §10

Inhibitory Activity 1a (IC50 against DYRK1A) (DYRK1A) | IC50 (DYRK2) | IC50 (DYRK3) | Inhibitory Activity 2 (IC50 against DYRK2) (DYRK2) | Inhibitory Activity 3 (IC50 against DYRK3) (DYRK3) | IC50 (DYRK1A) | SMILES
* * * | 100 to 1000 nM | 100 to 1000 nM | – | – | – | CC#CC1CNC(=O)N1c1nc2c3c(ccc2s1)OCCN3CCO (racemic) [Example 41, (RS)-1-[9-(2-hydroxyethyl)-8,9-dihydro-7H-thiazolo[4′,5′:3,4]benz[1,2-b][1,4]oxazin-2-yl]-5-(prop-1-yn-1-yl)imidazolidin-2-one]
* * * | 100 to 1000 nM | 100 to 1000 nM | – | – | – | CC#CC1CNC(=O)N1c1nc2c(ccc3nccn32)s1 (racemic) [Example 6, (RS)-1-(imidazo[1,2-a]thiazolo[5,4-e]pyridin-2-yl)-5-(prop-1-yn-1-yl)imidazolidin-2-one]
* * * | – | – | * * | * * | – | CC#CC1CNC(=O)N1c1nc2c3c(ccc2s1)OCC3 (single isomer, unassigned) [Example 9, 1-(7,8-dihydrobenzofuro[4,5-d]thiazol-2-yl)-5-(prop-1-yn-1-yl)imidazolidin-2-one]
* * * | 100 to 1000 nM | 100 to 1000 nM | – | – | – | CC#CC1CNC(=O)N1c1nc2c3c(ccc2s1)OCC(C)N3C (racemic) [Example 40, (RS)-1-((RS)-8,9-dimethyl-8,9-dihydro-7H-thiazolo[4′,5′:3,4]benz[1,2-b][1,4]oxazin-2-yl)-5-(prop-1-yn-1-yl)imidazolidin-2-one]
* * * | ≥ 1000 nM | ≥ 1000 nM | – | – | – | CC#CC1CNC(=O)N1c1nc2c(ccc3ocnc32)s1 (racemic) [Example 7, (RS)-5-(prop-1-yn-1-yl)-1-(thiazolo[5′,4′:5,6]benzo[1,2-d]oxazole-7-yl)imidazolidin-2-one]
* * * | 100 to 1000 nM | 100 to 1000 nM | – | – | – | CC#C[C@@H]1[C@H](C)NC(=O)N1c1nc2c3c(ccc2s1)OCCO3 [Example 56, (4S,5R)-1-(7,8-dihydro-[1,4]dioxino[2′,3′:5,6]benz[1,2-d]thiazol-2-yl)-4-methyl-5-(prop-1-yn-1-yl)imidazolidin-2-one]
* * * | 100 to 1000 nM | 100 to 1000 nM | – | – | – | CC#C[C@@H]1[C@H](C)NC(=O)N1c1nc2c3c(ccc2s1)OCCC3 [Example 57, (4S,5R)-1-(8,9-dihydro-7H-chromeno[5,6-d]thiazol-2-yl)-4-methyl-5-(prop-1-yn-1-yl)imidazolidin-2-one]
* * | ≥ 1000 nM | 100 to 1000 nM | – | – | – | CC#C[C@H]1[C@H](CN(C)C)NC(=O)N1c1nc2c3c(ccc2s1)OCC3 (single isomer, unassigned) [Example 69, trans-1-(7,8-dihydrobenzofuro[4,5-d]thiazol-2-yl)-4-[(dimethylamino)methyl]-5-(prop-1-yn-1-yl)imidazolidin-2-one]
* * * | ≥ 1000 nM | 100 to 1000 nM | – | – | – | CC#CC1CNC(=O)N1c1nc2c3c(ccc2s1)OCCN3CCOC (racemic) [Example 42, (RS)-1-[9-(2-methoxyethyl)-8,9-dihydro-7H-thiazolo[4′,5′:3,4]benz[1,2-b][1,4]oxazin-2-yl]-5-(prop-1-yn-1-yl)imidazolidin-2-one]
– | ≥ 1000 nM | ≥ 1000 nM | – | – | ≥ 1000 nM | CC#C[C@H]1[C@H](C(C)C)NC(=O)N1c1nc2c3c(ccc2s1)OCC3 [Example 67, (4S,5S)-1-(7,8-dihydrobenzofuro[4,5-d]thiazol-2-yl)-4-isopropyl-5-(prop-1-yn-1-yl)imidazolidin-2-one]
* * | ≥ 1000 nM | 100 to 1000 nM | – | – | – | CC#CC1CNC(=O)N1c1nc2c3c(ccc2s1)OCCN3S(C)(=O)=O (racemic) [Example 47, (RS)-1-[9-(methylsulfonyl)-8,9-dihydro-7H-thiazolo[4′,5′:3,4]benz[1,2-b][1,4]oxazin-2-yl]-5-(prop-1-yn-1-yl)imidazolidin-2-one]
– | ≥ 1000 nM | ≥ 1000 nM | – | – | 100 to 1000 nM | CC#C[C@H]1[C@H](CC)NC(=O)N1c1nc2c3c(ccc2s1)OCC3 (single isomer, unassigned) [Example 72, trans-1-(7,8-dihydrobenzofuro[4,5-d]thiazol-2-yl)-4-ethyl-5-(prop-1-yn-1-yl)imidazolidin-2-one]
* * * | 100 to 1000 nM | 100 to 1000 nM | – | – | – | CC#C[C@H]1[C@H](CO)NC(=O)N1c1nc2c3c(ccc2s1)OCC3 (relative stereo) [Example 61, trans-1-(7,8-dihydrobenzofuro[4,5-d]thiazol-2-yl)-4-(hydroxymethyl)-5-(prop-1-yn-1-yl)imidazolidin-2-one]
* * * | 100 to 1000 nM | – | – | * * | – | CC#CC1CNC(=O)N1c1nc2c3c(ccc2s1)OCCO3 (single isomer, unassigned) [Example 58, 1-(7,8-dihydro-[1,4]dioxino[2′,3′:5,6]benz[1,2-d]thiazol-2-yl)-5-(prop-1-yn-1-yl)imidazolidin-2-one]
– | ≥ 1000 nM | ≥ 1000 nM | – | – | 100 to 1000 nM | CC#C[C@@H]1[C@H](COC)NC(=O)N1c1nc2c3c(ccc2s1)OCC3 (single isomer, unassigned) [Example 75, cis-1-(7,8-dihydrobenzofuro[4,5-d]thiazol-2-yl)-4-(methoxymethyl)-5-(prop-1-yn-1-yl)imidazolidin-2-one]

From patent US20230138851A1, “NOVEL ALKYNE DERIVATIVES” (CARNA BIOSCIENCES, INC., priority 2020, published 2023)
